The values that follow come from patent publication US20110257211A1, “Small-Molecule Choline Kinase Inhibitors as Anti-Cancer Therapeutics” (ADVANCED CANCER THERAPEUTICS, LLC, priority 2010, published 2011).

One data set relates to K562. Briefly: Inhibition of cancer cell proliferation, Alamar Blue assay (K562). Format: cell-based. To be noted: Homo sapiens, Table 2A, Alamar Blue, 72 hours exposure, read-out: IC50s K562. The method, then: (§1) The ability of the compounds described herein to kill or inhibit the proliferation of cancer cells was measured using the Alamar Blue assay using a 72 hours exposure. Results for different cancer cell lines are shown in, the Table 2 below (hematopoietic cell lines U937 and K562; MDA-MB-231 a breast cancer cell line; and NCI-H82 and Calu-6, two lung cancer cell lines): […]
Background: The colour change of resazurin is a common sign of viable cells or microbes.

The next data set deals with MDA-MB-231. Briefly: Inhibition of cancer cell proliferation, Alamar Blue assay (MDA-MB-231). Format: cell-based. To be noted: Homo sapiens, Table 2A, Alamar Blue, 72 hours exposure, read-out: IC50s MDA-MB231. The method, then:
as §1

A short description of data set [1]: Microsomal stability in human liver microsomes. The data set is classed as in vitro ADME. The text has this:
Microsomal stability in vitro in different biologic media and species is ascertained when screening compounds to evaluate the rate at which a compound undergoes metabolism.
A general note: Microsomes from liver hold many membrane-bound enzymes, among them those of drug oxidation.

For another data set, the system named is U937. Briefly: Inhibition of cancer cell proliferation, Alamar Blue assay (U937). To be noted: Homo sapiens, U-937; Table 2A; Alamar Blue, 72 hours exposure; read-out: IC50s U937. Format: cell-based. As for the experimental part: as §1
Another data set relates to Calu-6. Briefly: Inhibition of cancer cell proliferation, Alamar Blue assay (Calu-6). To be noted: Homo sapiens, Table 2A, Alamar Blue, 72 hours exposure, read-out: IC50s Calu-6. The data set is classed as cell-based. As for the experimental part: as §1
For a further data set, the system named is NCI-H82. Briefly: Inhibition of cancer cell proliferation, Alamar Blue assay (NCI-H82). The data set is classed as cell-based. To be noted: Homo sapiens, Table 2A, Alamar Blue, 72 hours exposure, read-out: IC50s NCI-H82. As for the experimental part:
as §1

As for `CCOc1ccc(-c2nnc(SCC(=O)Nc3ccc(OC)cc3C)[nH]2)cc1` [ACT-CK-087, 2-[5-(4-Ethoxy-phenyl)-4H-[1,2,4]triazol-3-ylsulfanyl]-N-(4-methoxy-2-methyl-phenyl)-acetamide], the IC50 in the data set with K562 stood at 8.86 µM; in the data set with MDA-MB-231, 10.6 µM.
As to `CCOc1ccc(-c2nnc(SCC(=O)Nc3cc(C(F)(F)F)cc(C(F)(F)F)c3)[nH]2)cc1` [ACT-CK-152, N-(3,5-Bis-trifluoromethyl-phenyl)-2-[5-(4-ethoxy-phenyl)-4H-[1,2,4]triazol-3-ylsulfanyl]-acetamide], in data set [1], the “% Metabolized (mean)” value was 47%.
As to `CCOc1ccc(-c2nnc(SCC(=O)Nc3cc(C)cc(C)n3)[nH]2)cc1` [ACT-CK-147, N-(4,6-Dimethyl-pyridin-2-yl)-2-[5-(4-ethoxy-phenyl)-4H-[1,2,4]triazol-3-ylsulfanyl]-acetamide], the IC50 with K562 worked out at 0.97 µM; in the data set with MDA-MB-231, 53 µM; in the data set with U937, 0.63 µM; in the data set on Calu-6, 0.74 µM. Moreover, in data set [1], the “% Metabolized (mean)” value came out at 91%.
For `Cc1cc(C)cc(NC(=O)CSc2nnc(-c3ccc(OCCO)cc3)[nH]2)c1` [ACT-CK-155, N-(3,5-Dimethyl-phenyl)-2-{5-[4-(2-hydroxy-ethoxy)-phenyl]-4H-[1,2,4]triazol-3-ylsulfanyl}-acetamide], the “% Metabolized (mean)” value in data set [1] was found to be 69%.
As to `COc1ccc(-c2nnc(SCC(=O)Nc3cccc(C)c3C)[nH]2)cc1` [ACT-CK-070, N-(2,3-Dimethyl-phenyl)-2-[5-(4-methoxy-phenyl)-4H-[1,2,4]triazol-3-ylsulfanyl]-acetamide], the IC50 in the data set with K562 was 32.1 µM; with MDA-MB-231, 68.2 µM.
Regarding `CCOc1ccc(-c2nnc(SCC(=O)Nc3cc(OC)ccc3OC)[nH]2)cc1` [ACT-CK-093, N-(2,5-Dimethoxy-phenyl)-2-[5-(4-ethoxy-phenyl)-4H-[1,2,4]triazol-3-ylsulfanyl]-acetamide], the IC50 in the data set on K562 was found to be 6.16 µM; in the data set with MDA-MB-231, 15.7 µM.
As for `CCOc1ccc(-c2nnc(SCC(=O)Nc3cc(C)cc(C)c3)[nH]2)cc1C` [ACT-CK-142, N-(3,5-Dimethyl-phenyl)-2-[5-(4-ethoxy-3-methyl-phenyl)-4H-[1,2,4]triazol-3-ylsulfanyl]-acetamide], the IC50 with K562 was determined as 0.12 µM; with MDA-MB-231, 50 µM; with U937, 0.035 µM; in the data set with Calu-6, 0.09 µM. In data set [1], the “% Metabolized (mean)” value is reported as 99%.
In the case of `CCOc1ccc(-c2nnc(SCC(=O)Nc3cc(F)ccc3C)[nH]2)cc1` [ACT-CK-067, 2-[5-(4-Ethoxy-phenyl)-4H-[1,2,4]triazol-3-ylsulfanyl]-N-(5-fluoro-2-methyl-phenyl)-acetamide], the IC50 in the data set with K562 was 1.6 µM; in the data set on MDA-MB-231 it was 19.2 µM.
As for `Cc1cc(C)cc(NC(=O)CSc2nnc(-c3cc4ccccc4[nH]3)[nH]2)c1` [ACT-CK-124, N-(3,5-Dimethyl-phenyl)-2-[5-(1H-indol-2-yl)-4H-[1,2,4]triazol-3-ylsulfanyl]-acetamide], the IC50 is 23 µM in the data set on K562 and 16 µM in the data set on MDA-MB-231.
Take `CCOc1ccc(-c2nnc(SCC(=O)Nc3nc(C)cc(C)n3)[nH]2)cc1` [ACT-CK-148, N-(4,6-Dimethyl-pyrimidin-2-yl)-2-[5-(4-ethoxy-phenyl)-4H-[1,2,4]triazol-3-ylsulfanyl]-acetamide]: the IC50 in the data set on K562 is 0.72 µM; with MDA-MB-231, 29 µM; in the data set with U937, 0.5 µM; in the data set on NCI-H82, 8.1 µM; in the data set with Calu-6, 0.47 µM. The “% Metabolized (mean)” value in data set [1] is given as 54%.
Regarding `CCOc1ccc(-c2nnc(SCC(=O)Nc3cc(C)ccc3F)[nH]2)cc1` [ACT-CK-071, 2-[5-(4-Ethoxy-phenyl)-4H-[1,2,4]triazol-3-ylsulfanyl]-N-(2-fluoro-5-methyl-phenyl)-acetamide], the results for the IC50 in the data set on K562 and with MDA-MB-231 were 0.81 µM and 40.2 µM, respectively.
With `CCCOc1ccc(-c2nnc(SCC(=O)Nc3cc(C)ccc3F)[nH]2)cc1` [ACT-CK-120, N-(2-Fluoro-5-methyl-phenyl)-2-[5-(4-propoxy-phenyl)-4H-[1,2,4]triazol-3-ylsulfanyl]-acetamide], the values for the IC50 in the data set with K562 and in the data set on MDA-MB-231 were 43 µM and 9 µM, respectively.
`CCOc1ccc(-c2nnc(SCC(=O)Nc3cccc(C)c3)[nH]2)cc1` [ACT-CK-156, 2-[5-(4-Ethoxy-phenyl)-4H-[1,2,4]triazol-3-ylsulfanyl]-N-m-tolyl-acetamide]: the IC50 is 3.27 µM with K562; 7 µM in the data set on MDA-MB-231; 1.1 µM in the data set with U937; 1.7 µM in the data set on NCI-H82; 1.7 µM in the data set on Calu-6.
Turning to `Cc1cc(C)cc(NC(=O)CSc2nnc(-c3ccc(O)cc3)[nH]2)c1` [ACT-CK-146, N-(3,5-Dimethyl-phenyl)-2-[5-(4-hydroxy-phenyl)-4H-[1,2,4]triazol-3-ylsulfanyl]-acetamide], the IC50 in the data set with K562 was 31.7 µM; in the data set with MDA-MB-231, 91 µM; with U937 it was 34.1 µM; in the data set on Calu-6, 54 µM. Also, the “% Metabolized (mean)” value in data set [1] came to 85%.
`CCCOc1ccc(-c2nnc(SCC(=O)Nc3cc(C)cc(C)c3)[nH]2)cc1` [ACT-CK-118, N-(3,5-Dimethyl-phenyl)-2-[5-(4-propoxy-phenyl)-4H-[1,2,4]triazol-3-ylsulfanyl]-acetamide]: the IC50 in the data set with K562 is 1.4 µM; with MDA-MB-231, 5.6 µM.
Regarding `CCOc1ccc(-c2nnc(SCC(=O)Nc3cc(C)nc(C)c3)[nH]2)cc1` [ACT-CK-151, N-(2,6-Dimethyl-pyridin-4-yl)-2-[5-(4-ethoxy-phenyl)-4H-[1,2,4]triazol-3-ylsulfanyl]-acetamide], in data set [1], the “% Metabolized (mean)” value was found to be 91%.
As for `CCOc1ccc(-c2nnc(SCC(=O)Nc3cccc(C)c3C)[nH]2)cc1` [ACT-CK-076, N-(2,3-Dimethyl-phenyl)-2-[5-(4-ethoxy-phenyl)-4H-[1,2,4]triazol-3-ylsulfanyl]-acetamide], the IC50 in the data set with K562 is 14.6 µM; in the data set with MDA-MB-231 it was 21.2 µM.
In the same order, the values of `CCOc1ccc(-c2nnc(SCC(=O)Nc3ccc(C)cc3C)[nH]2)cc1` [ACT-CK-097, N-(2,4-Dimethyl-phenyl)-2-[5-(4-ethoxy-phenyl)-4H-[1,2,4]triazol-3-ylsulfanyl]-acetamide] are 3.78 µM and 12 µM.
In the case of `COc1ccc(-c2nnc(SCC(=O)Nc3cc(F)ccc3C)[nH]2)cc1` [ACT-CK-066, N-(5-Fluoro-2-methyl-phenyl)-2-[5-(4-methoxy-phenyl)-4H-[1,2,4]triazol-3-ylsulfanyl]-acetamide], the IC50 in the data set on K562 is 11.4 µM; with MDA-MB-231, 76.2 µM.
`COc1ccc(-c2nnc(SCC(=O)Nc3cc(C)ccc3F)[nH]2)cc1` [ACT-CK-085, N-(2-Fluoro-5-methyl-phenyl)-2-[5-(4-methoxy-phenyl)-4H-[1,2,4]triazol-3-ylsulfanyl]-acetamide]: the IC50 in the data set with K562 stood at 4.4 µM; in the data set with MDA-MB-231 it was 16.3 µM.
For `CCOc1ccc(-c2nnc(SCC(=O)Nc3cc(C)cc(C)c3)[nH]2)cn1` [ACT-CK-143, N-(3,5-Dimethyl-phenyl)-2-[5-(6-ethoxy-pyridin-3-yl)-4H-[1,2,4]triazol-3-ylsulfanyl]-acetamide], the “% Metabolized (mean)” value in data set [1] turned out to be 34%.
On to `COc1cccc(-c2nnc(SCC(=O)Nc3cc(C)cc(C)c3)[nH]2)c1` [ACT-CK-140, N-(3,5-Dimethyl-phenyl)-2-[5-(3-methoxy-phenyl)-4H-[1,2,4]triazol-3-ylsulfanyl]-acetamide], for which the IC50 was determined as 41 µM with K562, 79 µM in the data set with MDA-MB-231, 20.4 µM in the data set on U937 and 41.6 µM in the data set on Calu-6.
For `CCOc1cccc(-c2nnc(SCC(=O)Nc3cc(C)cc(C)c3)[nH]2)c1` [ACT-CK-141, N-(3,5-Dimethyl-phenyl)-2-[5-(3-ethoxy-phenyl)-4H-[1,2,4]triazol-3-ylsulfanyl]-acetamide] the same measures were 39 µM, 88 µM, 49 µM and 43 µM.
As for `COc1ccc(-c2nnc(SCC(=O)Nc3c(F)cccc3F)[nH]2)cc1` [ACT-CK-061, N-(2,6-Difluoro-phenyl)-2-[5-(4-methoxy-phenyl)-4H-[1,2,4]triazol-3-ylsulfanyl]-acetamide], the IC50 with K562 was 28.1 µM; in the data set with MDA-MB-231, > 100 µM.
Turning to `CCOc1ccc(-c2nnc(SCC(=O)Nc3ccc(F)cc3F)[nH]2)cc1` [ACT-CK-064, N-(2,4-Difluoro-phenyl)-2-[5-(4-ethoxy-phenyl)-4H-[1,2,4]triazol-3-ylsulfanyl]-acetamide], the IC50 with K562 amounted to 39.5 µM; with MDA-MB-231, 70.6 µM.
On to `CCCOc1ccc(-c2nnc(SCC(=O)Nc3cc(OC)cc(OC)c3)[nH]2)cc1` [ACT-CK-119, N-(3,5-Dimethoxy-phenyl)-2-[5-(4-propoxy-phenyl)-4H-[1,2,4]triazol-3-ylsulfanyl]-acetamide], for which the IC50 came to 28 µM in the data set on K562 and 11 µM with MDA-MB-231.
For `COc1ccc(-c2nnc(SCC(=O)Nc3ccc(C)cc3C)[nH]2)cc1` [ACT-CK-096], the IC50 in the data set on K562 was found to be 34 µM; in the data set with MDA-MB-231, 149 µM.
